The supplement of paper PMC10307832

Key:
Assay in all cases: relative viability (nuclei count vs DMSO), 5 days (fraction); higher = more cells survive
[1] = compound: COc1cc2nccc(Oc3ccc(NC(=O)C4(C(=O)Nc5ccc(F)cc5)CC4)cc3)c2cc1OC [Cabozantinib] + COc1cccc2cc(-c3nc([C@H]4CC[C@H](C(=O)O)CC4)n4ncnc(N)c34)[nH]c12 [OSI-027] (partner 0.5 µM)
Procedure, shortened: (§1)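 Relative viability was taken as the ratio of nuclei in treated wells to nuclei in vehicle wells. Lung cancer cell lines in 1536-well plates received compounds by pin tool one day after seeding, either one drug alone or a fixed anchor-drug dose plus five library-drug doses (not always all listed) in √10 steps. Nuclei were counted on 4× images after 5 days of treatment, and values are medians of duplicate plates.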

[2] = compound: O[C@@H](COc1cccc2ncccc12)CN1CCN([C@@H]2c3ccccc3[C@@H]3[C@H](c4ccccc42)C3(F)F)CC1 [Zosuquidar] + CS(=O)(=O)N1CCN(Cc2cc3nc(-c4cccc5[nH]ncc45)nc(N4CCOCC4)c3s2)CC1 [Pictilisib] (partner 1 µM)
Procedure, shortened: as §1

[3] = compound: O[C@@H](COc1cccc2ncccc12)CN1CCN([C@@H]2c3ccccc3[C@@H]3[C@H](c4ccccc42)C3(F)F)CC1 [Zosuquidar] + O=C(CCCCCCC(=O)Nc1ccccc1)NO [Vorinostat] (partner 1 µM)
Procedure, shortened: as §1

[4] = compound: C1=CC(=CC=C1NC(=S)NNC2=C(C=C(C=C2[N+](=O)[O-])C(F)(F)F)[N+](=O)[O-])F [Kobe2602] + Cc1cc(Nc2cc(N3CCN(C)CC3)nc(Sc3ccc(NC(=O)C4CC4)cc3)n2)n[nH]1 [Tozasertib] (partner 0.1 µM)
Procedure, shortened: as §1

Cell Line | relative viability ([1]; first compound 0.02 µM) | relative viability ([1]; first compound 0.06325 µM) | relative viability ([1]; first compound 0.2 µM) | relative viability ([1]; first compound 0.6325 µM) | relative viability ([1]; first compound 2 µM) | relative viability ([2]; first compound 0.01 µM) | relative viability ([2]; first compound 0.03162 µM) | relative viability ([2]; first compound 0.1 µM) | relative viability ([2]; first compound 0.3162 µM) | relative viability ([2]; first compound 1 µM) | relative viability ([3]; first compound 0.01 µM) | relative viability ([3]; first compound 0.03162 µM) | relative viability ([3]; first compound 0.1 µM) | relative viability ([3]; first compound 0.3162 µM) | relative viability ([3]; first compound 1 µM) | relative viability ([4]; first compound 0.2 µM) | relative viability ([4]; first compound 0.6325 µM) | relative viability ([4]; first compound 2 µM) | relative viability ([4]; first compound 6.325 µM) | relative viability ([4]; first compound 20 µM)
NCI-H1651 | 0.725 | 0.69 | 0.612 | 0.796 | 0.581 | 0.589 | 0.661 | 0.559 | 0.668 | 0.615 | 0.576 | 0.604 | 0.471 | 0.607 | 0.501 | 0.683 | 0.681 | 0.621 | 0.584 | 0.774
NCI-H1666 | 0.694 | 0.836 | 0.816 | 0.846 | 0.913 | 0.458 | 0.491 | 0.52 | 0.517 | 0.274 | 1 | 0.868 | 1.01 | 1.04 | 1.03 | 0.644 | 0.61 | 0.571 | 0.604 | 0.544
NCI-H1734 | 0.433 | 0.611 | 0.59 | 0.586 | 0.573 | 0.388 | 0.484 | 0.399 | 0.471 | 0.478 | 0.764 | 0.832 | 0.883 | 0.839 | 0.887 | 0.282 | 0.252 | 0.24 | 0.28 | 0.246
NCI-H1755 | 0.627 | 0.729 | 0.775 | 0.585 | 0.575 | 0.415 | 0.452 | 0.318 | 0.497 | 0.484 | 0.657 | 0.883 | 0.694 | 0.845 | 0.729 | 0.638 | 0.596 | 0.557 | 0.608 | 0.554
NCI-H1793 | 0.196 | 0.254 | 0.198 | 0.253 | 0.197 | 0.483 | 0.383 |  | 0.357 | 0.297 | 0.745 |  |  | 1.06 | 0.629 | 0.279 | 0.305 | 0.292 | 0.417 | 0.278
NCI-H1915 | 0.627 | 0.623 | 0.631 | 0.589 | 0.593 | 0.9 | 0.919 | 0.903 | 1.02 | 0.967 | 0.536 | 0.512 | 0.457 | 0.57 | 0.549 | 0.422 | 0.43 | 0.393 | 0.438 | 0.399
NCI-H1944 | 0.282 | 0.425 | 0.389 | 0.444 | 0.402 | 0.342 | 0.337 | 0.312 | 0.363 | 0.349 | 0.524 | 0.528 | 0.543 | 0.672 | 0.535 | 0.264 | 0.267 | 0.262 | 0.245 | 0.279
NCI-H1975 | 0.676 | 0.763 | 0.668 | 0.679 | 0.543 | 0.289 | 0.269 | 0.292 | 0.332 | 0.288 | 0.745 | 0.681 | 0.75 | 0.746 | 0.751 | 0.614 | 0.432 | 0.511 | 0.689 | 0.355
